Measurements as given in ChEMBL document CHEMBL3885881, “DrugMatrix”.

Species: Rattus norvegicus
Experiment: DrugMatrix - Regimen: Daily Repeat
Format: toxicity, organism-based, Sprague-Dawley
Set-up: regimen Daily Repeat, gender Male, age 6-8 weeks
Settings: in vivo, sc, route subcutaneous, […]; for ABSOLUTE BASOPHIL / ABSOLUTE EOSINOPHIL / ABSOLUTE LYMPHOCYTE / ABSOLUTE MONOCYTE / ABSOLUTE SEGMENTED NEUTROPHIL / BASOPHIL / EOSINOPHIL / ERYTHROCYTE COUNT / HEMATOCRIT / HEMOGLOBIN / LEUKOCYTE COUNT / LYMPHOCYTE / MEAN CORPUSCULAR HEMOGLOBIN / MEAN CORPUSCULAR HEMOGLOBIN CONCENTRATION / MEAN CORPUSCULAR VOLUME / MONOCYTE / NEUTROPHIL / NUCLEATED RED BLOOD CELLS / PLATELET COUNT: tissue Blood; for ALANINE AMINOTRANSFERASE / ALBUMIN / ALKALINE PHOSPHATASE / ASPARTATE AMINOTRANSFERASE / BLOOD UREA NITROGEN / CARBON DIOXIDE / CHLORIDE / CHOLESTEROL / CREATINE PHOSPHOKINASE / CREATININE / GLUCOSE / LACTATE DEHYDROGENASE / LIPASE / PHOSPHORUS / POTASSIUM / SODIUM / TOTAL BILIRUBIN / TOTAL PROTEIN / URIC ACID: tissue Plasma
[1] = 0 mg/kg, 72 h, dose level Control, time 3 day
[2] = 0 mg/kg, 120 h, dose level Control, time 5 day
[3] = 27 mg/kg, 72 h, dose level Low, time 3 day

`Clc1ccc(CSC(Cn2ccnc2)c2ccc(Cl)cc2Cl)cc1` (centres undefined) [SULCONAZOLE] was tested, and the “ABSOLUTE BASOPHIL” value [1] was 0 CELLS/uL, the “ABSOLUTE EOSINOPHIL” value [1] was 42.67 CELLS/uL and the “ABSOLUTE LYMPHOCYTE” value [1] was 10202 CELLS/uL. For the same compound, the “ABSOLUTE MONOCYTE” value [1] was 261.5 CELLS/uL, the “ABSOLUTE SEGMENTED NEUTROPHIL” value [1] was 2193.83 CELLS/uL and the BASOPHIL [1] was 0%. For the same compound, the EOSINOPHIL [1] was 0.33%, the “ERYTHROCYTE COUNT” value [1] was 5.63 x10E6/uL and the HEMATOCRIT [1] was 35.35%. The HEMOGLOBIN [1] was 13.07 G/DL, the “LEUKOCYTE COUNT” value [1] was 12.7 x10E3/uL and the LYMPHOCYTE [1] was 81.17%. For the same compound, the “MEAN CORPUSCULAR HEMOGLOBIN” value [1] was 23.23 pg, the “MEAN CORPUSCULAR HEMOGLOBIN CONCENTRATION” value [1] was 36.97 G/DL and the “MEAN CORPUSCULAR VOLUME” value [1] was 62.82 fL. The MONOCYTE [1] was 2%, the NEUTROPHIL [1] was 16.5% and the “NUCLEATED RED BLOOD CELLS” value [1] was 0 /100WBC. For the same compound, the “PLATELET COUNT” value [1] was 1180.33 x10E3/uL, the “ALANINE AMINOTRANSFERASE” value [1] was 48.67 u/L and the ALBUMIN [1] was 4.08 G/DL. The “ALKALINE PHOSPHATASE” value [1] was 360.67 u/L, the “ASPARTATE AMINOTRANSFERASE” value [1] was 85.5 u/L and the “BLOOD UREA NITROGEN” value [1] was 17.83 mg/dL. The “CARBON DIOXIDE” value [1] was 26.17 mmol/L, the CHLORIDE [1] was 101.83 MEQ/L and the CHOLESTEROL [1] was 71 mg/dL. For the same compound, the “CREATINE PHOSPHOKINASE” value [1] was 515.17 u/L, the CREATININE [1] was 0.22 mg/dL and the GLUCOSE [1] was 192.5 mg/dL. For the same compound, the “LACTATE DEHYDROGENASE” value [1] was 214.67 u/L, the LIPASE [1] was 8.5 u/L and the PHOSPHORUS [1] was 12.95 mg/dL. For the same compound, the POTASSIUM [1] was 6.39 MEQ/L, the SODIUM [1] was 142.38 MEQ/L and the “TOTAL BILIRUBIN” value [1] was 0.18 mg/dL. For the same compound, the “TOTAL PROTEIN” value [1] was 5.95 G/DL, the “URIC ACID” value [1] was 1.83 mg/dL and the “ABSOLUTE BASOPHIL” value [2] was 0 CELLS/uL. For the same compound, the “ABSOLUTE EOSINOPHIL” value [2] was 188.5 CELLS/uL, the “ABSOLUTE LYMPHOCYTE” value [2] was 12360.83 CELLS/uL and the “ABSOLUTE MONOCYTE” value [2] was 64.33 CELLS/uL. For the same compound, the “ABSOLUTE SEGMENTED NEUTROPHIL” value [2] was 1986.33 CELLS/uL, the BASOPHIL [2] was 0% and the EOSINOPHIL [2] was 1.33%. The “ERYTHROCYTE COUNT” value [2] was 5.52 x10E6/uL, the HEMATOCRIT [2] was 35.82% and the HEMOGLOBIN [2] was 13.25 G/DL. For the same compound, the “LEUKOCYTE COUNT” value [2] was 14.6 x10E3/uL, the LYMPHOCYTE [2] was 84.5% and the “MEAN CORPUSCULAR HEMOGLOBIN” value [2] was 24.05 pg. For the same compound, the “MEAN CORPUSCULAR HEMOGLOBIN CONCENTRATION” value [2] was 36.98 G/DL, the “MEAN CORPUSCULAR VOLUME” value [2] was 64.97 fL and the MONOCYTE [2] was 0.5%. The NEUTROPHIL [2] was 13.67%, the “NUCLEATED RED BLOOD CELLS” value [2] was 0 /100WBC and the “PLATELET COUNT” value [2] was 1297.83 x10E3/uL. For the same compound, the “ALANINE AMINOTRANSFERASE” value [2] was 51.17 u/L, the ALBUMIN [2] was 4.08 G/DL and the “ALKALINE PHOSPHATASE” value [2] was 393.17 u/L. The “ASPARTATE AMINOTRANSFERASE” value [2] was 111 u/L, the “BLOOD UREA NITROGEN” value [2] was 18.17 mg/dL and the “CARBON DIOXIDE” value [2] was 25 mmol/L. The CHLORIDE [2] was 105.17 MEQ/L, the CHOLESTEROL [2] was 65.5 mg/dL and the “CREATINE PHOSPHOKINASE” value [2] was 911.5 u/L. For the same compound, the CREATININE [2] was 0.21 mg/dL, the GLUCOSE [2] was 183 mg/dL and the “LACTATE DEHYDROGENASE” value [2] was 189 u/L. The LIPASE [2] was 8.33 u/L, the PHOSPHORUS [2] was 12.78 mg/dL and the POTASSIUM [2] was 6.05 MEQ/L. The SODIUM [2] was 144.57 MEQ/L, the “TOTAL BILIRUBIN” value [2] was 0.25 mg/dL and the “TOTAL PROTEIN” value [2] was 5.83 G/DL. For the same compound, the “URIC ACID” value [2] was 1.58 mg/dL, the “ABSOLUTE BASOPHIL” value [3] was 0 CELLS/uL and the “ABSOLUTE EOSINOPHIL” value [3] was 84.67 CELLS/uL. For the same compound, the “ABSOLUTE LYMPHOCYTE” value [3] was 11847.67 CELLS/uL, the “ABSOLUTE MONOCYTE” value [3] was 101 CELLS/uL and the “ABSOLUTE SEGMENTED NEUTROPHIL” value [3] was 2233.33 CELLS/uL. The BASOPHIL [3] was 0%, the EOSINOPHIL [3] was 0.67% and the “ERYTHROCYTE COUNT” value [3] was 5.29 x10E6/uL. The HEMATOCRIT [3] was 32.9%, the HEMOGLOBIN [3] was 12.1 G/DL and the “LEUKOCYTE COUNT” value [3] was 14.27 x10E3/uL. For the same compound, the LYMPHOCYTE [3] was 83.33%, the “MEAN CORPUSCULAR HEMOGLOBIN” value [3] was 22.9 pg and the “MEAN CORPUSCULAR HEMOGLOBIN CONCENTRATION” value [3] was 36.8 G/DL. For the same compound, the “MEAN CORPUSCULAR VOLUME” value [3] was 62.23 fL, the MONOCYTE [3] was 0.67% and the NEUTROPHIL [3] was 15.33%. For the same compound, the “NUCLEATED RED BLOOD CELLS” value [3] was 0 /100WBC, the “PLATELET COUNT” value [3] was 979.33 x10E3/uL and the “ALANINE AMINOTRANSFERASE” value [3] was 50.67 u/L. The ALBUMIN [3] was 4.07 G/DL, the “ALKALINE PHOSPHATASE” value [3] was 355.67 u/L and the “ASPARTATE AMINOTRANSFERASE” value [3] was 89 u/L. For the same compound, the “BLOOD UREA NITROGEN” value [3] was 18 mg/dL, the “CARBON DIOXIDE” value [3] was 26.33 mmol/L and the CHLORIDE [3] was 105.67 MEQ/L. For the same compound, the CHOLESTEROL [3] was 74.33 mg/dL, the “CREATINE PHOSPHOKINASE” value [3] was 269.33 u/L and the CREATININE [3] was 0.22 mg/dL. The GLUCOSE [3] was 174 mg/dL, the “LACTATE DEHYDROGENASE” value [3] was 83.33 u/L and the LIPASE [3] was 8.33 u/L. It also gave a PHOSPHORUS [3] of 14.23 mg/dL, a POTASSIUM [3] of 5.88 MEQ/L and an SODIUM [3] of 146.57 MEQ/L. The “TOTAL BILIRUBIN” value [3] was 0.17 mg/dL, the “TOTAL PROTEIN” value [3] was 5.83 G/DL and the “URIC ACID” value [3] was 1.5 mg/dL.
